Two molecules from patent publication US7618971B2, “Mitotic kinesin inhibitors” (Merck & Co. Inc., priority 2004, dated 2009) can be followed below.

SMILES strings stand for the structures.

This assay can be described thus: Activity of the resolved enantiomers of 1-5 (test not stated). Conditions: enantiomers resolved on Chiralpak AD; first and second peak to elute.

`CC(=O)N1N=C(c2cc(F)ccc2F)C[C@@]1(CCCO)c1ccccc1` (single isomer, unassigned; isomer 3) [(S) isomer]: the “activity of the enantiomer (active / inactive)” value is “active”. Regarding `CC(=O)N1N=C(c2cc(F)ccc2F)C[C@]1(CCCO)c1ccccc1` [(R) isomer], the “activity of the enantiomer (active / inactive)” value is “inactive”.
